Source: the NIST ThermoML archive (doi:10.1016/j.fluid.2019.03.004)
± gives the expanded uncertainty stated by the source.

Conditions: Liquid, Transpiration method

C=CCc1ccc(OC)cc1 [1-allyl-4-methoxybenzene]
Conditions	vapor or sublimation pressure [kPa]
279.1 K	0.00378 ± 0.00025
284.1 K	0.00583 ± 0.00041
288.9 K	0.00912 ± 0.00062
293.8 K	0.01395 ± 0.00092
298.8 K	0.02153 ± 0.0014
303.7 K	0.03168 ± 0.002
308.8 K	0.04509 ± 0.0029
313.7 K	0.06571 ± 0.0042
318.2 K	0.09199 ± 0.0058
323.2 K	0.1278 ± 0.008

C/C=C/c1ccc(O)c(OC)c1 [2-methoxy-4-(1E)-1-propen-1-yl-phenol]
Conditions	vapor or sublimation pressure [kPa]
313.2 K	0.00241 ± 0.00017
315.2 K	0.00289 ± 0.0002
316.2 K	0.00313 ± 0.0002
318.2 K	0.00371 ± 0.00025
320.3 K	0.00449 ± 0.0003
323.2 K	0.00561 ± 0.0004
325.2 K	0.00657 ± 0.00046
328.1 K	0.00838 ± 0.00056
330.2 K	0.00975 ± 0.00066
333.2 K	0.01216 ± 0.00081
336.3 K	0.01528 ± 0.001
338.2 K	0.01783 ± 0.0012
340.2 K	0.02046 ± 0.0013
343.2 K	0.02507 ± 0.0016
345.1 K	0.02835 ± 0.0018
348.2 K	0.03558 ± 0.0023
350.1 K	0.04019 ± 0.0026
353.1 K	0.05109 ± 0.0033
356.1 K	0.06297 ± 0.004
358.1 K	0.07097 ± 0.0045

C/C=C/c1ccc(OC)cc1 [(E)-1-(4-methoxyphenyl)propene]
Conditions	vapor or sublimation pressure [kPa]
296.5 K	0.00567 ± 0.00041
300.4 K	0.00774 ± 0.00054
304.4 K	0.0112 ± 0.00076
308.4 K	0.01507 ± 0.00099
312.3 K	0.02056 ± 0.0013
313.2 K	0.02178 ± 0.0014
316.4 K	0.02753 ± 0.0018
318.5 K	0.03262 ± 0.0021
321.4 K	0.04178 ± 0.0027
323.4 K	0.04533 ± 0.0029
326.4 K	0.05539 ± 0.0035
328.4 K	0.06574 ± 0.0042
331.5 K	0.08089 ± 0.0051
333.4 K	0.09361 ± 0.0059

C=CCc1ccc(O)c(OC)c1 [2-hydroxy-5-allylanisole]
Conditions	vapor or sublimation pressure [kPa]
281.1 K	0.0003 ± 2e-05
283.7 K	0.00039 ± 3e-05
289 K	0.00066 ± 5e-05
293.9 K	0.00111 ± 8e-05
298.9 K	0.00179 ± 0.00012
303.7 K	0.00287 ± 0.0002
308.7 K	0.00447 ± 0.0003
313.7 K	0.00709 ± 0.00049
318.9 K	0.01038 ± 0.00069
323.6 K	0.01507 ± 0.00099
328.6 K	0.02241 ± 0.0015
333.6 K	0.03329 ± 0.0022
338.5 K	0.04891 ± 0.0031
343.5 K	0.06869 ± 0.0043
